Where a SMILES comes first, the peptide text is derived from it. [ ]: non-standard residue; d: D form. The star is where a group is joined. Nle(5E-ene,6-CO2Et) = CCOC(=O)/C=C/CC[C@H](N)C(=O)O; Cbz = O=C(OCc1ccccc1)* Some results are limits rather than exact numbers.

Test [1] deals with biopsies from the lower duodenum of patients suffering from coeliac disease. The experiment in a line: Biopsy example 2: interferon-γ ELISA of PT gliadin stimulated duodenal biopsies. As to conditions: 5 μM inhibitor preincubation, PT gliadin stimulation. The test is classed as cell-based, human. On the procedure:
(§1) Biopsies with a diameter of about 2 mm were stored for a maximum of 30 min in ice-cold PBS after removal from the lower duodenum of patients suffering from coeliac disease. The single biopsies were transferred into the cavities of a 24-well cell culture dish and coated with 500 μl of Trowell T8 medium.
For preincubation, the transglutaminase inhibitor (1) in a final concentration of 5 μM was added to the biopsies and they were incubated for 30 min at a temperature of 37° C. in the incubator under gassing with CO2 (5%). Subsequently, stimulation with gliadin after peptic-tryptic digest (PT gliadin) used in a final concentration of 1 mg/ml was performed. PT gliadin was produced as described by Wieser and Belitz (Wieser H and Belitz HD (1992), Z Lebenm Unters Forsch 194: 229-234). The treatment with the proteases pepsin and trypsin simulates the digestion in the gastrointestinal tract. […]
Biopsies were cultivated and treated as described in biopsy example 1. After 24 and 48 hrs, 50 μl samples were taken both from the biopsy stimulated with PT gliadin and from the biopsy preincubated with inhibitor (1), which subsequently was also stimulated with PT gliadin and the samples were analyzed by means of an interferon-γ Elisa. A very high interferon-γ value of 653 pg/ml could already be measured in the biopsy stimulated with PT gliadin after 24 hrs, which value increased to 1177 pg/ml after 48 hrs.
(An ELISA detects its analyte on a solid surface through an enzyme-linked reagent.)

The target in another test is T1, FXIII (Homo sapiens, UniProt P00488).
T1 sequence (P00488 1-732): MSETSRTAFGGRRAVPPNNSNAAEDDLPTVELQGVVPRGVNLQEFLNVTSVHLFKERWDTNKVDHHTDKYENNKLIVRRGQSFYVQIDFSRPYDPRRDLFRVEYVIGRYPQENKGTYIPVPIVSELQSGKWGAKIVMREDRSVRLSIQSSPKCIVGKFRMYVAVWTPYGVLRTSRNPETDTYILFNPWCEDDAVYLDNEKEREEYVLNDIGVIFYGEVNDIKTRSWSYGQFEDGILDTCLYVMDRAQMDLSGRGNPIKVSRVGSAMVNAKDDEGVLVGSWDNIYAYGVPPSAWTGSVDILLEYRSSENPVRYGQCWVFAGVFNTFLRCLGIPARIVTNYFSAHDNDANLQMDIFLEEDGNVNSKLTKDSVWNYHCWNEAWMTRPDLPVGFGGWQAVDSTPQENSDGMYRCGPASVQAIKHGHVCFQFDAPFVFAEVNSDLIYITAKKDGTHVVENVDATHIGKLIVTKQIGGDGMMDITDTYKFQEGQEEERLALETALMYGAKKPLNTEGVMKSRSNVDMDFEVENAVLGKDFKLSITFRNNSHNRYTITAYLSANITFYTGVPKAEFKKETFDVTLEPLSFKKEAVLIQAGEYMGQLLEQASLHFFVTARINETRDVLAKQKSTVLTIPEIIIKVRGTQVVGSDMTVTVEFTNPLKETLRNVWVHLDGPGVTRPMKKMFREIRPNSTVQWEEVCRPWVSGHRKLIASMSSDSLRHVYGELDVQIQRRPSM
Nature of the test: Transglutaminase inhibition, IC50 at FXIII. The test is classed as biochemical. The settings on record: Table 1.

The target of test [2] is T2, recombinant human tissue transglutaminase (His6-rh-TG2) (Homo sapiens, UniProt P21980).
T2 sequence (P21980 1-687): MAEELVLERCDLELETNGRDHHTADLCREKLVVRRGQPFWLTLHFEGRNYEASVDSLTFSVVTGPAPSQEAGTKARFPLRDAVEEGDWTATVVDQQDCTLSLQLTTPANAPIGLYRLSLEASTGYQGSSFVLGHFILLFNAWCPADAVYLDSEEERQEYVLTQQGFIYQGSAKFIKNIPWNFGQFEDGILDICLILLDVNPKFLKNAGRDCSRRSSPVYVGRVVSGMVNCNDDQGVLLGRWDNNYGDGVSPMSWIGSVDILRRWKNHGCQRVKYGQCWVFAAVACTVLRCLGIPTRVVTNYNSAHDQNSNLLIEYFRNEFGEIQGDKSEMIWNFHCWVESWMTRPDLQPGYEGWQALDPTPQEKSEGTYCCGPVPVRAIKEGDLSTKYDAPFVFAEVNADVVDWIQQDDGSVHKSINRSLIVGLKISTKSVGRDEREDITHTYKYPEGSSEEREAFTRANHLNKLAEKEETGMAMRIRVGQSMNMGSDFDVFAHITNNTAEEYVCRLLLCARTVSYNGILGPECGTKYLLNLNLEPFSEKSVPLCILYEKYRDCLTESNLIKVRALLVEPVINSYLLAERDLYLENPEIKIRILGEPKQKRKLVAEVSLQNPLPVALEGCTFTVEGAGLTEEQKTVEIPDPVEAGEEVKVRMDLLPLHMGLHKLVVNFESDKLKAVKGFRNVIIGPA
The experiment in a line: Inactivation of human tissue transglutaminase, fluorescence assay, IC50. The test is classed as biochemical. As to conditions: Table 1; 5 min preincubation, 37° C. Summed up:
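10 μg His6-rh-TG2 added to a pH 7.5 Tris/CaCl2/DTT/PEG8000 assay solution holding inhibitor, 5.56 mM glycine methyl ester and 50 μM Abz-APE(CAD-DNP)QEA-OH (pre-addition levels); 5 min at 37 °C before reading. Fluorescence λexc 313/λem 418 nm over 15 min; activity from slope, IC50 relative to DMSO control.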

The subject of the next test is dog (Irish setter). The experiment in a line: In-vivo experiment in the Irish setter fed a wheat-containing diet. As for the experimental part: A 5 weeks old dog (Irish setter) was fed with a wheat-containing diet. […] By a jejunal biopsy a partial degradation of the intestinal villi and an increased number of intraepithelial lymphocytes were found.
This dog was fed before each meal with 75 mg/kg body weight transglutaminase inhibitor (1) in a acid-stable formulation. In the following a decrease of the diarrhea and an increase in body weight were observed.

The subject of test [3] is biopsies from the lower duodenum of patients suffering from coeliac disease. The experiment in a line: Biopsy example 1: anti-TG2 ELISA of PT gliadin stimulated duodenal biopsies. Format: cell-based, human. The settings on record: 5 μM inhibitor, 30 min preincubation, then PT gliadin 1 mg/ml, 48 hrs; medium control 1.285, PT gliadin alone 2.144. As for the experimental part: as §1
For preincubation, the transglutaminase inhibitor (1) in a final concentration of 5 μM was added to the biopsies and they were incubated for 30 min at a temperature of 37° C. in the incubator under gassing with CO2 (5%). Subsequently, stimulation with gliadin after peptic-tryptic digest (PT gliadin) used in a final concentration of 1 mg/ml was performed. PT gliadin was produced as described by Wieser and Belitz (Wieser H and Belitz HD (1992), Z Lebenm Unters Forsch 194: 229-234). The treatment with the proteases pepsin and trypsin simulates the digestion in the gastrointestinal tract. Thus the resulting gliadin peptides correspond to those which occur in the duodenum after the intake of cereal protein. The biopsies were then incubated for another 48 hrs in the incubator under the above conditions.
Controls were incubated with inhibitor-free medium and without or respectively with PT gliadin.
After 48 hrs, 50 μl samples were taken and analyzed by means of an anti-TG2 ELISA kit.

Where [4] appears, read: 75 mg/kg before each meal, after two months.
Where [5] appears, read: 75 mg/kg body weight before each meal, acid-stable formulation.

With `CCOC(=O)/C=C/CC[C@H](NC(=O)OCc1ccccc1)C(=O)N[C@H](C(=O)N1CCC[C@H]1C(=O)N[C@@H](CC(C)C)C(=O)OC)C(C)C` [Compound 1, N^α-benzyloxycarbonyl-{[(E)-(L)-6-amino-hept-2-ene-dicarboxylic acid]-1-ethanoyl}-L-valinyl-L-prolinyl-L-leucine methyl ester] (Cbz-[Nle(5E-ene,6-CO2Et)]VPL-OMe), in test [1] (after 24 hrs, PT gliadin alone 653 pg/ml), the interferon-γ value turned out to be 86 pg/mL. In addition, the interferon-γ value in test [1] (after 48 hrs, PT gliadin alone 1177 pg/ml) was 426 pg/mL. For the same molecule, the 50% inhibitory concentration (IC50) (commonly the midpoint of a concentration-inhibition curve) against FXIII is over 50000 nM. Besides, the IC50 in test [2] was 30 nM. Besides, in the test with dog (Irish setter) (setting [4]), the “length of the intestinal villi (biopsy)” value was “normal length” and the “number of intraepithelial lymphocytes (biopsy)” value is “significantly reduced”. For the same molecule, in the test on dog (Irish setter) (setting [5]), the body weight result is “increase” and the diarrhea entry is “decrease”. Further, the “OD450 in the anti-TG2 ELISA (antibody concentration)” value in test [3] was 1.401.

The record behind these values is patent publication US8471063B2, “Michael systems as transglutaminase inhibitors” (Zedira GmbH, priority 2006, dated 2013).
